Test results published in US11111219B2, “Polysubstituted pyrimidines inhibiting the formation of prostaglandin E2, a method of production thereof and use thereof” (USTAV ORGANICKE CHEMIE A BIOCHEMIE AV CR, V.V.I., priority 2017, dated 2021).
“And” between values parts separate entries of the source, which are not always exact repeats. Equal entries are not always repeated.

Assays:
Format in all cases: cell-based
mouse peritoneal cells = experiment: Cell viability, lactate dehydrogenase (LDH) assay; details: compound 50 μmol·l^−1, 5 hours
Procedure: Cell viability was determined using the lactate dehydrogenase assay (LDH kit, Sigma-Aldrich). The mouse peritoneal cells were cultured for 5 hours in the presence of tested compounds applied at the concentration of 50 μmol.l^−1. The effects of pyrimidines were compared with the viability of cells cultured in the absence of the compounds. The later was taken as a control 100% viability.

biosynthesis of PGE2 = experiment: Production of PGE2 in LPS-stimulated mouse peritoneal cells; details: for activity at 50 µM: Mus musculus, 5 h, compound 50 μmol·l^−1, with LPS 10 ng/ml, 5 hours, LPS alone = 100%, low values = strong inhibition, read-out: PGE2 remaining activity in % of LPS response (mean ± SEM); for IC50: concentration-effect experiments, 0.0004 to 25 μmol·l^−1, mouse peritoneal cells, LPS, read-out: PGE2 IC50, and 95% limits of confidence (in parentheses)
Procedure: Production of PGE2 was assayed in vitro in cultures of mouse peritoneal cells. The cells (2×10^6/mL) were stimulated with bacterial lipopolysaccharide (LPS, 10 ng/ml). Tested pyrimidine derivatives were applied at the concentration of 50 μmol.l^−1, concomitantly with LPS. Amount of PGE2 in cell supernatants was determined 5 hours after stimulation using the commercially available kit (R&D Systems). The effects of pyrimidines on PGE2 production were evaluated in percent of control values, i.e. those found after the action of LPS alone (100%). The data in Table 2 show the remaining activity; the low values thus indicate strong inhibition of PGE2 formation.
The concentrations required to inhibit PGE2 biosynthesis by 50% (so-called IC50) were determined by the analysis of concentration-effect experiments. For this purpose, the compounds were applied within the range of 0.0004 μmol.l^−1 až 25 μmol.l^−1.

[1] = test system: production of nitric oxide (NO); experiment: Production of nitric oxide (NO) in LPS/IFN-γ-stimulated murine peritoneal cells (Griess reagent); details: Mus musculus; compound 50 μmol·l^−1, LPS 0.1 ng/ml + IFN-γ 5 ng/ml, nitrites at 24 h; LPS/IFN-γ alone = 100%; read-out: Production of NO in % of controls
Procedure: Similar to the PGE2 assay, the production of nitric oxide (NO) was followed under conditions in vitro using murine peritoneal cells (FIG. 1). The cells (2×10^6/ml) were cultured in presence of lipopolysaccharide (LPS, 0.1 ng/ml) and recombinant mouse interferon-γ (IFN-γ, 5 ng/ml). Effects of tested pyrimidine derivatives were screened at the concentration of 50 μmol.l^−1. The compounds were added concomitantly with LPS/IFN-γ. The concentration of nitrites in cell supernatants (a measure of NO production) was evaluated spectrophotometrically, 24 h after the priming stimuli. Griess reagent was used for this purpose. The effects of pyrimidines on NO production were evaluated in percent of control values, i.e those found after the action of LPS/IFN-γ alone (100%).

Row | SMILES | Cell viability in % of untreated controls (LDH assay) (mouse peritoneal cells) | activity at 50 µM (biosynthesis of PGE2) [%] | IC50 (biosynthesis of PGE2) [nM] | Inhibition of PGE2 production (in words) (biosynthesis of PGE2; compound 50 μmol·l^−1) | activity at 50 µM [1] [%]
1 | CCCCc1c(-c2ccccc2)nc(N)nc1-c1ccc(OCC)cc1 [Compound 1a, 5-butyl-4-(4-ethoxyphenyl)-6-phenylpyrimidin-2-amine] | 104.6 ± 1.3 (n = 8) % | 26.3 ± 0.1 | – | – | –
2 | CCCCc1c(-c2ccccc2)nc(N)nc1-c1ccc(OC(C)C)cc1 [Compound 1b, 5-butyl-4-(4-isopropoxyphenyl)-6-phenylpyrimidin-2-amine] | 71.2 ± 1.9 (n = 8) % | 12.3 ± 0.5 | – | – | –
3 | Nc1nc(-c2ccccc2)cc(-c2ccc(OCc3ccccc3)cc2)n1 [Compound 1d, 4-(4-(benzyloxy)phenyl)-6-phenylpyrimidin-2-amine] | 101.2 ± 0.7 (n = 4) % | 0.7 ± 0.8 | – | – | –
4 | CCCCc1c(-c2ccccc2)nc(N)nc1-c1ccc(OCc2ccccc2)cc1 [Compound 1e, 4-(4-(benzyloxy)phenyl)-5-butyl-6-phenylpyrimidin-2-amine] | – | – | 94 | – | –
5 | CCCCc1c(-c2ccccc2)nc(N)nc1-c1ccc(OCc2cccc3ccccc23)cc1 [Compound 1f, 5-butyl-4-(4-(naphthalen-1-ylmethoxy)phenyl)-6-phenylpyrimidin-2-amine] | 104.8 ± 0.4 (n = 8) % | 26.3 ± 5.3 | – | – | –
6 | COc1ccc(COc2ccc(-c3cc(-c4ccccc4)nc(N)n3)cc2)cc1 [Compound 1g] | 99.6 ± 3.0 (n = 4) % | 8.4 ± 3 | – | – | –
7 | CCCCc1c(-c2ccccc2)nc(N)nc1-c1ccc(OCc2ccc(OC)cc2)cc1 [Compound 1h, 5-butyl-4-(4-((4-methoxybenzyl)oxy)phenyl)-6-phenylpyrimidin-2-amine] | 104.2 ± 0.3 (n = 8) % | 2 ± 1.5 | 5400 | – | –
8 | Nc1nc(-c2ccccc2)cc(-c2ccc(OCc3ccc(Cl)cc3)cc2)n1 [Compound 1i, 4-(4-((4-chlorobenzyl)oxy)phenyl)-6-phenylpyrimidin-2-amine] | 102.2 ± 4.1 (n = 4) % | – | – | – | –
9 | CCCCc1c(-c2ccccc2)nc(N)nc1-c1ccc(OCc2ccc(Cl)cc2)cc1 [Compound 1j, 5-butyl-4-(4-((4-chlorobenzyl)oxy)phenyl)-6-phenylpyrimidin-2-amine] | 101.2 ± 0.8 (n = 8) % | 0.7 ± 0.5 | 77 | – | –
10 | CCCCc1c(-c2ccccc2)nc(N)nc1-c1ccc(OCc2ccccc2)cc1C [Compound 1k, 4-(4-(benzyloxy)-2-methylphenyl)-5-butyl-6-phenylpyrimidin-2-amine] | 103.2 ± 0.5 (n = 8) % | 51.1 ± 0.8 | – | – | –
11 | Nc1nc(-c2ccccc2)cc(-c2ccc(OCc3ccccc3)c(F)c2F)n1 [Compound 1l, 4-(4-(benzyloxy)-2,3-difluorophenyl)-6-phenylpyrimidin-2-amine] | 102.6 ± 3.7 (n = 4) % | 5.5 ± 0.3 | – | – | –
12 | CCCCc1c(-c2ccccc2)nc(N)nc1-c1ccc(OCc2ccccc2)c(F)c1F [Compound 1m, 4-(4-(benzyloxy)-2,3-difluorophenyl)-5-butyl-6-phenylpyrimidin-2-amine] | 103.7 ± 0.4 (n = 8) % | 0.03 ± 0.2 | 6 | completely inhibits | 84
13 | CCCCc1c(-c2ccccc2)nc(N)nc1-c1cc(C)c(OCc2ccccc2Cl)c(C)c1 [Compound 1n, 5-butyl-4-(4-((2-chlorobenzyl)oxy)-3,5-dimethylphenyl)-6-phenylpyrimidin-2-amine] | 103.6 ± 0.3 (n = 8) % | 7.1 ± 1.9 | – | – | –
14 | CCCCc1c(-c2ccccc2)nc(N)nc1-c1cc(C)c(OCc2cccc(Cl)c2)c(C)c1 [Compound 1o, 5-butyl-4-(4-((3-chlorobenzyl)oxy)-3,5-dimethylphenyl)-6-phenylpyrimidin-2-amine] | 102.8 ± 0.4 (n = 8) % | 6.5 ± 0.4 | – | – | –
15 | CCCCc1c(-c2ccc(OCc3ccccc3)cc2)nc(N)nc1-c1cccc(OC)c1 [Compound 2a, 4-(4-(benzyloxy)phenyl)-5-butyl-6-(3-methoxyphenyl)pyrimidin-2-amine] | 43.1% and 43.1 ± 8.4 (n = 4) % | 10 ± 2 | – | – | –
16 | CCCCc1c(-c2ccc(OC)cc2)nc(N)nc1-c1ccc(OCc2ccccc2)cc1 [Compound 2b, 4-(4-(benzyloxy)phenyl)-5-butyl-6-(4-methoxyphenyl)pyrimidin-2-amin] | 100.3 ± 1.2 (n = 4) % | 10.5 ± 0.1 | – | – | –
17 | CCCCc1c(-c2ccc(OCc3ccccc3)cc2)nc(N)nc1-c1cccc(Cl)c1 [Compound 2c, 4-(4-(benzyloxy)phenyl)-5-butyl-6-(3-chlorophenyl)pyrimidin-2-amine] | 101.3 ± 2.0 (n = 4) % | 12.6 ± 1.7 | – | – | –
18 | CCCCc1c(-c2ccc(Cl)cc2)nc(N)nc1-c1ccc(OCc2ccccc2)cc1 [Compound 2d, 4-(4-(benzyloxy)phenyl)-5-butyl-6-(4-chlorophenyl)pyrimidin-2-amine] | 96.7 ± 2.2 (n = 4) % | 4.1 ± 0.7 | – | – | –
